Laboratory results from patent publication US20220009891A1, “(R) ENANATIOMER OF APLEXONE” (The Regents of the University of California, priority 2018, published 2022).

Assays:
[1] = system: Transgenic Tg(kdrl:GFP)la116 zebrafish embryos; assay: Disruption of the caudal vein plexus in zebrafish embryos; format: in vivo; conditions: two-day-old zebrafish embryos, treated beginning at 10 hpf
Description: (§1) Transgenic Tg(kdrl:GFP)la116 zebrafish embryos were treated with aplexone compounds beginning at 10 hours post fertilization (hpf). After two days of development, treated embryos were anesthetized with 0.01% tricaine and imaged using a Zeiss Axioplan 2 microscope. […] Formation of the caudal vein plexus is disrupted by treatment with 10 μM or higher of racemic (±)-aplexone (3) and 5 μM or higher of R-aplexone (3), but the caudal vein plexus forms normally even after treatment with 20 μM (S)-aplexone (3).

[2] = system: Zebrafish embryos; assay: Biological assays used herein (summary statement); format: in vivo
Description: as §1
(§2) Zebrafish embryos used in cholesterol assays were treated with aplexone or atorvastatin (AT) from 10 hpf to 30 hpf at a concentration of 40 μM. Yolks were removed by vortexing in calcium-free Ringer's solution with 1 mM EDTA at 4° C. The embryos were then washed with calcium-free Ringer's solution, resuspended in cholesterol assay reaction buffer, and lysed by sonication. Cholesterol levels in embryo lysates were measured with an Amplex Red Cholesterol Assay Kit (ThermoFisher Scientific) and FLUOstar Omega microplate reader (BMG Labtech). Protein concentrations of the embryo lysates were measured by DC protein assay (Bio-Rad Laboratories) using a FLUOstar Omega microplate reader.

[3] = system: Zebrafish embryos; assay: Cholesterol assay in zebrafish embryos (Amplex Red Cholesterol Assay Kit); format: in vivo; conditions: 40 μM, treated from 10 hpf to 30 hpf; FIG. 1
Description: as §2

[4] = system: zebrafish; conditions: Choi et al., Development 2011; cited from earlier work
[5] = system: HMG-CoA reductase pathway; conditions: zebrafish; Choi et al., Development 2011; cited from earlier work

**Q.** With `CC(=O)C1=CC[C@@H](c2ccccc2)N(S(=O)(=O)c2ccc(C)cc2)C1` [S-aplexone] as the compound, how does the “concentration at which formation of the caudal vein plexus is disrupted” value (“concentration at which formation” below) [1] read?
**A.** > 20 µM

**Q.** And the “biological activity of the enantiomer” value [2]?
**A.** little to no biological activity

**Q.** What about the “cholesterol levels in embryo lysates compared with atorvastatin (AT)” value [3] of the same compound?
**A.** no cholesterol lowering activity

**Q.** With `CC(=O)C1=CC[C@H](c2ccccc2)N(S(=O)(=O)c2ccc(C)cc2)C1` [R-aplexone] as the compound, how does the “concentration at which formation” value [1] read?
**A.** ≥ 5 µM

**Q.** And the “biological activity of the enantiomer” value [2]?
**A.** active enantiomer

**Q.** And the “cholesterol levels in embryo lysates compared with atorvastatin (AT)” value [3]?
**A.** decreased the cholesterol levels to a greater extent than AT

**Q.** For `CCOC(=O)C1=CC[C@H](c2ccccc2)N(S(=O)(=O)c2ccc(C)cc2)C1` [7c, Ethyl (R)-6-phenyl-1-tosyl-1,2,5,6-tetrahydropyridine-3-carboxylate], which melting point is on record?
**A.** 145 to 146 °C

**Q.** Which “levels of embryonic cholesterol compared with atorvastatin” value [4] does the source give for `CC(=O)C1=CCC(c2ccccc2)N(S(=O)(=O)c2ccc(C)cc2)C1` (racemic) [(±)-aplexone, 1-(6-phenyl-1-tosyl-1,2,5,6-tetrahydropyridin-3-yl)ethan-1-one] here?
**A.** lowered the levels of embryonic cholesterol to a degree similar to that of atorvastatin

**Q.** What about the “concentration at which formation” value [1] of the same compound?
**A.** ≥ 10 µM

**Q.** And the “cholesterol levels in embryo lysates compared with atorvastatin (AT)” value [3]?
**A.** lowered the cholesterol levels to an extent similar to that of AT

**Q.** What about the “regulation of arteriovenous angiogenesis” value [5] of the same compound?
**A.** regulate arteriovenous angiogenesis in zebrafish
